For this experiment, the target named is T1, α2δ subunit derived from porcine brain tissue (Sus scrofa, UniProt A0A287BIN3).
T1 construct: the α2δ subunit derived from porcine brain tissue; from tissue; host or cells: porcine brain
As to the kind of experiment: radioligand binding assay using [3H]gabapentin and the α2δ subunit. The following applies: [3H]gabapentin radioligand. The text has this: The biological activity of the compounds of the invention may be measured in a radioligand binding assay using [^3H]gabapentin and the α2δ subunit derived from porcine brain tissue (Gee N. S., Brown J. P., Dissanayake V. U. K., Offord J., Thurlow R., Woodruff G. N., […] J. Biol. Chem., 1996;271:5879-[…]). Results may be expressed in terms of μM or nM α2δ binding affinity.

This note sets out measurements from patent publication US20040092591A1, “Therapeutic use of fused bicyclic or tricyclic amino acids” (priority 2002, published 2004).

T1 sequence (A0A287BIN3 entry or part of it): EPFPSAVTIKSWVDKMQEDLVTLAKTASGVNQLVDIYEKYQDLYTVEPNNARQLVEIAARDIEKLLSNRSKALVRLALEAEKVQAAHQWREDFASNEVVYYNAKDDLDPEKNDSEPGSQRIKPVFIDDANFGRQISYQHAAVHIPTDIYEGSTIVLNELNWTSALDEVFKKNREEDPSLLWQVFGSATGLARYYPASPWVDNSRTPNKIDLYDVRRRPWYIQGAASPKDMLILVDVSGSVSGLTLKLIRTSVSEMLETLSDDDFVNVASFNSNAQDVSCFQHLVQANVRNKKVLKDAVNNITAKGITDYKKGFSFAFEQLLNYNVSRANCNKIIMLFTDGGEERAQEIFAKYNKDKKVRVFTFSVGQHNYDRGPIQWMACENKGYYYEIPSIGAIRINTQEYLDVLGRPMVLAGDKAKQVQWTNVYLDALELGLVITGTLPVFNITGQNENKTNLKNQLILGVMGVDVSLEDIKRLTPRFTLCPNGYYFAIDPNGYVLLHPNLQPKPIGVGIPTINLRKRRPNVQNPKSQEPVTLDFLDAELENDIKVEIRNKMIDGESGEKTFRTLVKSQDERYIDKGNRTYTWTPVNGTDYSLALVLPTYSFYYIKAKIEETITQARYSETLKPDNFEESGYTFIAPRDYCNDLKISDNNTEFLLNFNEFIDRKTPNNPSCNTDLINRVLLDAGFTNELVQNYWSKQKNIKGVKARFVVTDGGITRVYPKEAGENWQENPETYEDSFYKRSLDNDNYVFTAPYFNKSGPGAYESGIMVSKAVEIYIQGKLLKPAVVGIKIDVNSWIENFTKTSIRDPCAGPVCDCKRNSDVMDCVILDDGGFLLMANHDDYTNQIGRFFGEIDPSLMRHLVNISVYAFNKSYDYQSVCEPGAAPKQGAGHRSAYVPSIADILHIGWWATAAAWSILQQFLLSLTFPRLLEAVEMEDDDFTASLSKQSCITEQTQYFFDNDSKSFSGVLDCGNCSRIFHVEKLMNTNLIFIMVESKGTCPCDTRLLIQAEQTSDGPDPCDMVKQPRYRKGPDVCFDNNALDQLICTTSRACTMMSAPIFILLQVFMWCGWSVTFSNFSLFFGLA

`Cl.NC[C@]1(CC(=O)O)C[C@H]2CCCC[C@H]21` (racemic) [Example 4, [(1RS,6RS,7SR)-7-(Aminomethyl)bicyclo[4.2.]oct-7-yl]acetic acid hydrochloride]: the α2δ binding affinity is listed as 600 nM.

`Cl.NC[C@]1(CC(=O)O)C[C@H]2CCC[C@H]21` [Example 1, [(1R,5R,6S)-6-(Aminomethyl)bicycl[3.2.0]hept-6-yl]acetic acid hydrochloride] showed a α2δ binding affinity of 46.8 nM.
